Like-named read-outs stand apart in the source and are kept apart here.
Experiments:
[1] = molecular target: T1, RyR1 receptor (Oryctolagus cuniculus, UniProt P11716); experiment: Tritiated ryanodine binding assay on heavy sarcoplasmic reticulum vesicles; settings: biotinylated variants complexed with Strept-Cy3, increasing concentrations
T1 construct: from tissue; host or cells: heavy sarcoplasmic reticulum vesicles (skeletal muscle implied)
Experimental: The heavy sarcoplasmic reticulum vesicles are prepared according to the method of Kim et al. (J. Biol. Chem., 1983, 258, 9662-9668) modified as described in Marty et al. (J. Biol. Chem., 2000, 275, 8206-8212). The protein concentration is measured by the Biuret method.
The heavy sarcoplasmic reticulum vesicles (1 mg/ml) are incubated at 37° C. for 2 hours and 30 min, in reaction buffer comprising 5 nM [^3H]-ryanodine, 150 mM NaCl, 2 mM EGTA, 2 mM Ca^2+ (pCa=5) and 20 mM Hepes, pH 7.4. Maurocalcine, the maurocalcine-derived peptides and their biotinylated derivatives are added before the addition of the heavy sarcoplasmic reticulum vesicles. The [^3H]-ryanodine bound to the heavy sarcoplasmic vesicles is measured by filtration through Whatmann GF/B filters, followed by three washes with 5 ml of ice-cold washing buffer (150 mM NaCl, 20 mM Hepes, pH 7.4). The [^3H]-ryanodine retained on the filters is measured by liquid scintillation. The nonspecific binding is measured in the presence of […] ryanodine (20 μM). The results are given in the form of means±standard deviation. Each experiment is carried out in triplicate and repeated at least twice.

[2] = test system: HEK293 cells; experiment: Cell penetration and subcellular distribution of complexes in HEK293 cells, confocal microscopy; format: cell-based, human; settings: 333 nM, 30 min
Experimental: Soluble streptavidin-cyanin 3 and streptavidin-cyanin 5 (Strept-Cy^3 and Strept-Cy^5, AMERSHAM) were mixed with 4 molar equivalents of biotinylated maurocalcine (1 mM) or biotinylated maurocalcine-derived peptide, in phosphate buffer (PBS, in mM: 136 NaCl, 1.47 Na2HPO4, 2.6 KCl, 1 CaCl2, 0.5 MgCl2, pH 7.2), for 2 hours at 37° C. and in the dark.
The human embryonic kidney cells (HEK 293 line, ATCC) are divided before confluence, by treatment with trypsin (1%), and are maintained in DMEM medium (INVITROGEN) containing 10% of inactivated fetal calf serum (INVITROGEN) and 1% of penicillin/streptomycin (INVITROGEN), in a CO2 incubator (5%). The culture medium is changed every 2 days.
The cells were incubated with maurocalcine and the derived peptides, biotinylated and complexed with streptavidin-cyanin 3 or with streptavidin-cyanin 5, […], in the dark and at ambient temperature, for 30 minutes to 1 hour. After 3 washes in PBS, the cells are fixed at ambient temperature, in a paraformaldehyde solution (4%), for 10 min, in the dark, washed in PBS and incubated for one hour with FITC-conjugated concanavalin (MOLECULAR PROBES, 5 μg/ml) in order to label the plasma membrane, and TO-PRO-3 iodide (MOLECULAR PROBES, 1 μM) in order to label the nucleus. In order to label the cytoskeleton, the cells were fixed and permeabilized with ice-cold methanol, for 10 min, washed twice in PBS and incubated with a mouse anti-alpha-tubulin antibody (1:1000, SIGMA), for 2 hours. After two washes in PBS, the cells were incubated for one hour with an anti-mouse IgG secondary antibody conjugated to Alexa 488 (1:1000, MOLECULAR PROBES). The cultures were then mounted in Vectashield mounting medium (VECTOR LABORATORIES). Preparations were observed by laser scanning confocal microscopy, using a Leica TCS-SP2 control system. The Alexa-488 and Cy3 or propidium iodide (PI) fluorescences were excited sequentially and then recorded. The Cy3 fluorescence was excited using a 543 nm helium-neon laser beam and the fluorescence emission was recorded between 554 nm and 625 nm. The images were introduced into Adobe Photoshop 7.0.

[3] = test system: HEK293 cells; experiment: Flow cytometry analysis of cellular penetration of complexes (trypsin/heparin treatment); format: cell-based, human; settings: for penetrating activity compared with maurocalcine (factor): biotinylated variant/Strept-Cy3 complexes, FIG. 5
Experimental: The cells are incubated with maurocalcine and the derived peptides, biotinylated and complexed with […], at the final concentration of 100 nM in PBS, in the dark and at ambient temperature for 1 hour. After 2 washes in PBS (PBS, in mM: […], 6.84 Na2HPO4, 3.16 NaH2PO4, pH 7.2), and the cells were treated with trypsin (1 mg/ml, INVITROGEN), for 10 min at 37° C., in order to remove the extracellular complexes and the plasma-membrane-bound complexes. After the incubation with trypsin, the cell suspension was centrifuged at 500 g and the cells were resuspended in PBS containing 1 μg/ml of propidium iodide (SIGMA). […] The analysis was carried out on live cells, using a flow cytometer (FACScalibur, BECTON DICKINSON). The data were recorded and analyzed using appropriate software (CellQuest, BD BIOSCIENCES). The live cells were sorted according to their size and their granulosity (forward/side scattering), over a total of 10 000 events.
The analysis is carried out as described in Example 1. For the heparin treatment experiments, the complexes were prepared in a heparin solution (bovine intestine heparin, sodium salt, SIGMA) and the cells were washed twice with the heparin solution, before and after incubation with the complexes prepared in the same heparin solution.
The cellular penetration was analyzed by flow cytometry, on cells incubated with the MCab/Strept-Cy3 complexes, and then treated with trypsin, so as to remove the complexes bound to the plasma membrane by means of lipids, specific receptors or heparan sulfate glycosaminoglycan (HPSG). It has been shown that this method makes it possible to effectively study the entry of penetrating peptides into cells (Richard et al., J. Biol. Chem., 2003, 278, 585-590).

[4] = test system: live cells; experiment: Flow cytometry analysis of cellular penetration at increasing extracellular KCl (membrane potential); format: cell-based
Experimental: The MCab-Strept-Cy^5 complexes were prepared in solutions containing various NaCl/KCl ratios (composition in mM: 145 to 5 NaCl, 5 to 145 KCl, 2.5 CaCl2, 1.2 MgCl2, 10 glucose, 10 HEPES, pH 7.4).
The cells were washed twice with the NaCl/KCl solution used to prepare the complexes, and then incubated with maurocalcine and the derived peptides, which are biotinylated and complexed with streptavidin-cyanin 3 (MCab-Strept-Cy^3 complexes), at the final concentration of 100 nM in the same NaCl/KCl solution, in the dark and at ambient temperature for 1 hour. After 2 washes in the same NaCl/KCl buffer, the cyanin 3 fluorescence was analyzed on live cells, using a flow cytometer (FACScalibur, BECTON DICKINSON). The data were recorded and analyzed using appropriate software (CellQuest, BD BIOSCIENCES). The live cells were sorted according to their size and their granulosity (forward/side scattering), over a total of 10 000 events.

[5] = Surface pressure of monomolecular lipid films (DPPC); settings: 1 μM
Experimental: (§1) The disialoganglioside NeuAcα2-8NeuAca2-3Galb1-aGlcb1-Cer (GD3) and dipalmitoylphosphatidylcholine (DPPC) were provided respectively by MATREYA INC and SIGMA.
The surface pressure was measured using an automatic microtensiometer (μ THROUGH SX, KIBRON INC.). The apparatus makes it possible to record kinetics of interaction of a ligand with a monomolecular film using a series of appropriate Teflon probes. All the experiments were carried out in a controlled atmosphere at 20±1. The molecular films of the lipids indicated were deposited onto an aqueous phase of ultrapure water (800 μl), using hexane:chloroform:ethanol (11:5:4, v/v/v), as described previously (Mahfoud et al., J. Biol. Chem., 2002, 277, 11292-11296). After spreading of the film, a minimum period of elapsed time of 5 min was observed, in order to allow the solvent to evaporate off. In order to measure the interaction of MCa with the lipid monolayers, various concentrations of peptides were injected into the monomolecular film with a […] Hamilton syringe and the resulting increase in pressure, produced by the incorporation of the peptide, was recorded until equilibrium was reached (maximum increase in surface pressure generally reached after an incubation of 100 to 150 min). […] The results were analyzed with Filmware 2.5 software (KIBRON INC.). […]

[6] = Surface pressure of monomolecular lipid films (GD3)
Experimental: as §1
The surface pressure was measured using an automatic microtensiometer (μ THROUGH SX, KIBRON INC.). The apparatus makes it possible to record kinetics of interaction of a ligand with a monomolecular film using a series of appropriate Teflon probes. All the experiments were carried out in a controlled atmosphere at 20±1. The molecular films of the lipids indicated were deposited onto an aqueous phase of ultrapure water (800 μl), using hexane:chloroform:ethanol (11:5:4, v/v/v), as described previously (Mahfoud et al., J. Biol. Chem., 2002, 277, 11292-11296). After spreading of the film, a minimum period of elapsed time of 5 min was observed, in order to allow the solvent to evaporate off. In order to measure the interaction of MCa with the lipid monolayers, various concentrations of peptides were injected into the monomolecular film with a […] Hamilton syringe and the resulting increase in pressure, produced by the incorporation of the peptide, was recorded until equilibrium was reached (maximum increase in surface pressure generally reached after an incubation of 100 to 150 min). For the dose-dependent interaction between MCa and GD3, the monomolecular films of GD3 were prepared at an initial surface pressure (pi) of 10 mN·m^−1. The results were analyzed with Filmware 2.5 software (KIBRON INC.). The system for measuring the surface pressures was accurate to 0.25 mN·m^−1 under the experimental conditions.

T1 sequence (P11716 whole entry): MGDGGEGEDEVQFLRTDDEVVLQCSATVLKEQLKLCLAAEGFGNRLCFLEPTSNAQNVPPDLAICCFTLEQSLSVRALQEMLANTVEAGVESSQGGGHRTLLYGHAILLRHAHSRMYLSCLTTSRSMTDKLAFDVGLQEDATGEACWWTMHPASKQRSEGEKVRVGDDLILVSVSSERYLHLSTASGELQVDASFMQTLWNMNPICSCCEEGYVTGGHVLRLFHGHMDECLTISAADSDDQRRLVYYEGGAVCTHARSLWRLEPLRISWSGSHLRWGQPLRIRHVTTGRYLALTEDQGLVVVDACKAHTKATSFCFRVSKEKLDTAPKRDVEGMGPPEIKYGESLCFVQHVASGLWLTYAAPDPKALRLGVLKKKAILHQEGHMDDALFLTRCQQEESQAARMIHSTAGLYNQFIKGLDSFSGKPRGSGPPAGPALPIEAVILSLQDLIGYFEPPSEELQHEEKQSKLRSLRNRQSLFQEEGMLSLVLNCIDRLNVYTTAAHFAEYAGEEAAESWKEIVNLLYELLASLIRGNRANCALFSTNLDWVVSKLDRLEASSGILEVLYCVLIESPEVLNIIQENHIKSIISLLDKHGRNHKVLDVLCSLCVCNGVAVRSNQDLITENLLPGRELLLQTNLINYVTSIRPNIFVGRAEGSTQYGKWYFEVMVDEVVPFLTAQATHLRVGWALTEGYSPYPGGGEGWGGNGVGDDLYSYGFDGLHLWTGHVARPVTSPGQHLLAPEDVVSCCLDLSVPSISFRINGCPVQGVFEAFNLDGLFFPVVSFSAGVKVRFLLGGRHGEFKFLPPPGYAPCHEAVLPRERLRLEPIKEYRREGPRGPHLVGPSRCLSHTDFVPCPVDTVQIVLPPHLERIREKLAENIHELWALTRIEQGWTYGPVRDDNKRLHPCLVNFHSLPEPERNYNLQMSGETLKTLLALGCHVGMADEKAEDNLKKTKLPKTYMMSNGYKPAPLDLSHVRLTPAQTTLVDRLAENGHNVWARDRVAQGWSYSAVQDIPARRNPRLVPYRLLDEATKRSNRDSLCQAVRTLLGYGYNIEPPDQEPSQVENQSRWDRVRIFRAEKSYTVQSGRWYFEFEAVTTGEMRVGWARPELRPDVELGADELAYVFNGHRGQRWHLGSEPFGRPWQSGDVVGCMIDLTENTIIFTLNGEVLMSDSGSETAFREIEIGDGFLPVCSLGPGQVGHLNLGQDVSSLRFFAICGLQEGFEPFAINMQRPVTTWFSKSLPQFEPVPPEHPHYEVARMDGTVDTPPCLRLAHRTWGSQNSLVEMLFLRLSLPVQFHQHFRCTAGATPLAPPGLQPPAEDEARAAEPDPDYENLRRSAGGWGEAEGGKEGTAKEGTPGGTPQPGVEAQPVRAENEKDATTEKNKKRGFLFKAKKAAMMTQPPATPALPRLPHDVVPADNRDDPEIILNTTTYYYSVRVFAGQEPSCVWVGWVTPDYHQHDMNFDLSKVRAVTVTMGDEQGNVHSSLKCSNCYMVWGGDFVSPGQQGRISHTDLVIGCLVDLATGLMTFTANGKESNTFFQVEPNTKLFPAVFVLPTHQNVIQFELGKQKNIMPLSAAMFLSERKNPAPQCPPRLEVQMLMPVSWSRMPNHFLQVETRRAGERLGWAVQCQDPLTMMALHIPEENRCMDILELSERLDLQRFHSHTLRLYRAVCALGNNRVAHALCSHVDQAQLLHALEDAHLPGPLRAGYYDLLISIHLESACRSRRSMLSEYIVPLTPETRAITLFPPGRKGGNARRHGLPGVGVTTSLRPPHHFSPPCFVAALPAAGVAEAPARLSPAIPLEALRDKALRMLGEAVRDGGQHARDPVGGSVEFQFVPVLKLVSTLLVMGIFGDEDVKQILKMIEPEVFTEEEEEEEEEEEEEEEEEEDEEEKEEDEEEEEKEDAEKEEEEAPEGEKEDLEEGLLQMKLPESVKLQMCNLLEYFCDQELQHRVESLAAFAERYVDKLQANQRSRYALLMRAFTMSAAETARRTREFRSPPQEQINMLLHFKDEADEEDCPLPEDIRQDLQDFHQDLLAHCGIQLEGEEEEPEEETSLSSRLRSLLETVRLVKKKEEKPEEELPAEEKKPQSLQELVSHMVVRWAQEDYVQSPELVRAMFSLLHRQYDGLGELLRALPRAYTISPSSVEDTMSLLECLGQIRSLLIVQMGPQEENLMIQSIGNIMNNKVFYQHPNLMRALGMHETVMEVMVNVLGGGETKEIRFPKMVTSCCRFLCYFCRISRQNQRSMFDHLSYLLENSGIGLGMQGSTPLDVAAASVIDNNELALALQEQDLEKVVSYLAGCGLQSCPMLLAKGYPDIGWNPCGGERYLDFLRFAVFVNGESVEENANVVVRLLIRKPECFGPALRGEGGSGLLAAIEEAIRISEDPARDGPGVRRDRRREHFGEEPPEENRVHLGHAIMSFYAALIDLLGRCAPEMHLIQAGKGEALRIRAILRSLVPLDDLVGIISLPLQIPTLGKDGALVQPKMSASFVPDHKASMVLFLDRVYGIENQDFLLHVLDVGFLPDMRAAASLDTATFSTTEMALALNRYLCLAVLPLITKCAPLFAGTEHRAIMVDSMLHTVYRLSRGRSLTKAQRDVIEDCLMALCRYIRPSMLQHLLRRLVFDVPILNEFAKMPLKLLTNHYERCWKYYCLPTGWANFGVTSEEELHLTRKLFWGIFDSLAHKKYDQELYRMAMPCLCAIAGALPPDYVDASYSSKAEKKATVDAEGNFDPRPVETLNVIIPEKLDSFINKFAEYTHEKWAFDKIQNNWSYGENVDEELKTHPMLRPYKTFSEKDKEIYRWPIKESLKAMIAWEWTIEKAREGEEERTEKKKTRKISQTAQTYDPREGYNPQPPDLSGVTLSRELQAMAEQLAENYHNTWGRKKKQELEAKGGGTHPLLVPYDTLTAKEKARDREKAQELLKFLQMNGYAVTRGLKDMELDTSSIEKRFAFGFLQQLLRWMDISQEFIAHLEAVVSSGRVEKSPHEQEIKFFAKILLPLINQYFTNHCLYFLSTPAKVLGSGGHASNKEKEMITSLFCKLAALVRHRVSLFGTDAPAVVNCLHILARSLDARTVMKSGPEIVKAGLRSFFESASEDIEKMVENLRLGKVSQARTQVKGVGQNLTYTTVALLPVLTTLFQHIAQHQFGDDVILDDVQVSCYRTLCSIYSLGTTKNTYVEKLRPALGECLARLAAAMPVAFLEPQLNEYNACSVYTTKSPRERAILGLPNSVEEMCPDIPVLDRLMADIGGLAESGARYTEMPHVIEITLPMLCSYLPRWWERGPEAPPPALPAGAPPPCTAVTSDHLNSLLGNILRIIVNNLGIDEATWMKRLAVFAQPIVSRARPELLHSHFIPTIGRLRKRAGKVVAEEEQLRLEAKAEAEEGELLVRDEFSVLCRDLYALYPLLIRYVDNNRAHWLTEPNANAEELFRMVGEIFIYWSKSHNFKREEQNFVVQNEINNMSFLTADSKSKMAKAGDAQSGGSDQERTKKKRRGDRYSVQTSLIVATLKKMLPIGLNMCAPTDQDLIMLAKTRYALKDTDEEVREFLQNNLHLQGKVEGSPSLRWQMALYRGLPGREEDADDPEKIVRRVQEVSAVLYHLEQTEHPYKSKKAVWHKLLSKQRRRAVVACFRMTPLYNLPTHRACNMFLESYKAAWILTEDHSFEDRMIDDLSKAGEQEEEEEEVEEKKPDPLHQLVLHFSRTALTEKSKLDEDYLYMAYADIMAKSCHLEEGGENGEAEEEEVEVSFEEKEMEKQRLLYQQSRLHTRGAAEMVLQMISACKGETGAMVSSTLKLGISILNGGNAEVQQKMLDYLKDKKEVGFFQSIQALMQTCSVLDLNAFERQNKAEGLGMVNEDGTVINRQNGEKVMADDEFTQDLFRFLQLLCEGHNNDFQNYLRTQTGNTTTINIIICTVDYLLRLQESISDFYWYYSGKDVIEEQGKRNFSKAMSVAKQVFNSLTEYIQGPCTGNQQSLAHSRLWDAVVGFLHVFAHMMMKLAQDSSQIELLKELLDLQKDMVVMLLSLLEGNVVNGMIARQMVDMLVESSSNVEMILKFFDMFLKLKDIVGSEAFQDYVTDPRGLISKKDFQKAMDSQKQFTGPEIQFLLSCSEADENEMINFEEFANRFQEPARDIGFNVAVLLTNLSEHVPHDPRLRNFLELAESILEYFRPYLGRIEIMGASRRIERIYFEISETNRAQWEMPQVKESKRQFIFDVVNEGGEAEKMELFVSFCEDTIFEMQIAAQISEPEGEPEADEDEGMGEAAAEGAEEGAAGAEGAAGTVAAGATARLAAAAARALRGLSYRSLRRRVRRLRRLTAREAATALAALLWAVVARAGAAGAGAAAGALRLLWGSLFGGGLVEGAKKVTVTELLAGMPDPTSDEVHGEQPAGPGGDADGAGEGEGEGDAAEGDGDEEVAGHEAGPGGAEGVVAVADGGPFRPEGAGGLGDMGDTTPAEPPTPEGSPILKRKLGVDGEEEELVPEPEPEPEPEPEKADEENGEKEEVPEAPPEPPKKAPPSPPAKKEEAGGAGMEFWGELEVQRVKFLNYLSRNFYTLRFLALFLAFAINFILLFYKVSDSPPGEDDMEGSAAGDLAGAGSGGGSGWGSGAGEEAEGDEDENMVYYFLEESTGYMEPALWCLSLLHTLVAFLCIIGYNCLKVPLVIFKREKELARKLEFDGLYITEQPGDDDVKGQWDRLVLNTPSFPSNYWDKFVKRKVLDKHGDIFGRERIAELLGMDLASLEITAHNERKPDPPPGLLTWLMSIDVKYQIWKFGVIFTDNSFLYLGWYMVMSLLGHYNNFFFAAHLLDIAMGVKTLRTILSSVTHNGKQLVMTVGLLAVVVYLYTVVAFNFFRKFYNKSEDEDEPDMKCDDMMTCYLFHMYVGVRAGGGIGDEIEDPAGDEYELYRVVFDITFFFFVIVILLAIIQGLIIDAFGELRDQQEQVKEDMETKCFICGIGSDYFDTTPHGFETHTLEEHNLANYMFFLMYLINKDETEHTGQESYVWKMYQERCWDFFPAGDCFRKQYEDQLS

| Sequence | activity on the RyR1 receptor (stimulation of [3H]-ryanodine binding) [1] | transduction of HEK293 cell cultures by biotinylated variant/Strept-Cy3 complexes [2] | penetrating activity compared with maurocalcine (factor) [3] | limitation of penetration by depolarization (increase in extracellular KCl) [4] | change in surface pressure of the DPPC film [5] | concentration at which interaction with GD3 is detectable [6] [nM] | concentration at which interaction with GD3 reaches a maximum [6] [nM] | maximum increase in surface pressure a (kinetics fit) ([6]; 1 μM MCa, GD3 film) [mN·m^−1] | time constant for the change in surface pressure b ([6]; 1 μM MCa, GD3 film) [s⁻¹] | maximum increase in surface pressure a (dose-response fit) ([6]; GD3 film, as a function of MCa concentration) [mN·m^−1] | EC50 ([6]; read-out: concentration that produces 50% of the maximum effect on GD3) [nM] | EC50 ([6]; sigmoidal fit, FIG. 11B, read-out: concentration X0 giving 50% of the maximum effect on GD3 surface pressure) [nM] | lowest concentration at which penetration into the cells occurs ([3]; biotinylated peptide/Strept-Cy3 complexes, dose-response) [nM] |
| --- | --- | --- | --- | --- | --- | --- | --- | --- | --- | --- | --- | --- | --- |
| GDCLPHAKLCKENKDCCSKKCKRRGTNIEKRCR (maurocalcine L7A mutant) | less active on the RyR1 receptor than MCab/Strept-Cy3 | effectively transduce cell cultures | 5 |  |  |  |  |  |  |  |  |  |  |
| GDCLPHLKLCKENKDCCSKKCKRAGTNIEKRCR (maurocalcine R24A mutant) | inactive | effectively transduce cell cultures | comparable to, or even slightly less than, maurocalcine |  |  |  |  |  |  |  |  |  |  |
| GDCLPHLKLCKENKDCCSKKCKRRGTNIEKRCR [maurocalcine] |  |  |  | approximately 50% | no significant change in surface pressure | 100 | 750 | 22.9 | 0.0003 | 22.1 | 500 | 490 | 10 |
